Measurements reported in patent US9504674B2, “TrkB agonists and methods of use” (EMORY UNIVERSITY, priority 2010, dated 2016).

Tests used:
MAPK = MAPK phosphorylation in primary neurons (immunoblotting); format: cell-based, rat; conditions: 500 nM, time course
Experimental: Rat primary neurons were treated with 500 nM. 4′-DMA-7,8-DHF from various time points. The neuronal lysates were analyzed with various antibodies. 4′-DMA-7,8-DHF rapidly activated TrkB and its downstream signaling cascades (left panels). […] One mg/kg of 4′-DMA-7,8-DHF and 7,8-DHF were orally administrated into C57 BL/6J mice and TrkB phosphorylation and its downstream signaling cascades including Akt and MAPK in mouse brain were analyzed by immunoblotting at various time points. TrkB activation by 4′-DMA-7,8-DHF peaked at 4 h, whereas the maximal TrkB activation by 7,8-DHF in mouse brain occurred at 1-2 h (middle panels).
To compare the TrkB activation by these synthetic compounds, primary cortical cultures were prepared. Cortical neurons were treated with 500 nM of various compounds for 20 min and cell lysates were collected. […] Replacing the H-bond acceptor O atom with hydrogen bond donor NH abolishes its stimulatory effect. […] On the other hand, 7,8-DHF provoked TrkB activation with the minimal concentration of 100 nM (FIG. 2B, right panels). To further study 4′-DMA-7,8-DHF's kinetics on TrkB activation, primary neurons were treated for various time points. 4′-DMA-7,8-DHF swiftly activated TrkB as soon as 5 minutes following treatment. […] TrkB activation was monitored at different time points.

TrkB F616A = target: T1, TrkB F616A (Mus musculus, UniProt P15209, F616A); assay: Neuroprotection against KA in TrkB F616A knockin mice with or without 1NMPP1; format: in vivo; conditions: for KA-induced caspase-3 activation in TrkB F616A mice: 5 mg/kg oral 4 h before KA 20 mg/kg; for KA-induced caspase-3 activation in TrkB F616A mice / TrkB F616A activation (phosphorylation) in knockin mice: without 1NMPP1; for protective effect against KA in F616A mice after 1NMPP1 pretreatment: 5 mg/kg oral 4 h before KA, 1NMPP1 in drinking water; for TrkB phosphorylation in F616A mice after 1NMPP1 pretreatment / TrkB F616A activation (phosphorylation) in knockin mice: 5 mg/kg oral
T1 construct: from tissue; host or cells: TrkB F616A knock-in mice (brain; whole animal in the forced swim test)
Experimental: 4′-DMA-7,8-DHF and 7,8-DHF suppressed KA-induced caspase-3 activation in TrkB F616A mutant knockin mice, which cannot be blocked by 1NMPP1 (top panel).
TrkB F616A knockin mice (2-3 months old) were fed with 1NMPP1 (25 mM) in drinking water one day before pharmacological reagent treatment. Next day, the mice were orally injected with 7,8-DHF or 4′-DMA-7,8-DHF (5 mg/kg) 4 h before kainic acid (20 mg/kg). The control mice were injected with saline, 1NMPP1, kainic acid alone or administrated 7,8-DHF or 4′-DMA-7,8-DHF 4 h before kainic acid. In 4 days, the mice were sacrificed and brains were homogenated and ultracentrafuged. The supernatant ([…]) was employed for SDS-PAGE and immunoblotting analysis with indicated antibodies, respectively.

T1 sequence (P15209 32-821 F616A): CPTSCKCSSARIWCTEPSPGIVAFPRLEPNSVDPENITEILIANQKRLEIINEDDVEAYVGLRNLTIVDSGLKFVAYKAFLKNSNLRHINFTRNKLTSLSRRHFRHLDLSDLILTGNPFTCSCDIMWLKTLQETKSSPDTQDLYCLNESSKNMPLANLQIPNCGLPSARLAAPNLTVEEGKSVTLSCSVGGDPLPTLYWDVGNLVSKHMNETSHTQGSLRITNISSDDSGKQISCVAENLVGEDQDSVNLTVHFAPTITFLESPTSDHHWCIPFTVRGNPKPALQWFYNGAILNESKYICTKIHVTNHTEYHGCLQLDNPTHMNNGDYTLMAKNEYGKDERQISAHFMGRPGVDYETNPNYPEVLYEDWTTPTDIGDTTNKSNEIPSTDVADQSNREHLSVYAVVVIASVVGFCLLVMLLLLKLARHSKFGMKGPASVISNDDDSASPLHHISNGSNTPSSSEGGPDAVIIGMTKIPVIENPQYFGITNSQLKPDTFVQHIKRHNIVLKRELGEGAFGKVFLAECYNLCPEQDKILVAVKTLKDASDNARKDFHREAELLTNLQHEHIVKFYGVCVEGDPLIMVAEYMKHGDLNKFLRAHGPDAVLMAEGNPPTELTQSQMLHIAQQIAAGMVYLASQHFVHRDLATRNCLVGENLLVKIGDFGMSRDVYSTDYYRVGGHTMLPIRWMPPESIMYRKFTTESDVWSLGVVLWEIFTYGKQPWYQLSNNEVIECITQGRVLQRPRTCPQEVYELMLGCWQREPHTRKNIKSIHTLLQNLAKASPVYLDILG

Row | Compound | time of peak MAPK phosphorylation (MAPK) | KA-induced caspase-3 activation in TrkB F616A mice (TrkB F616A) | protective effect against KA in F616A mice after 1NMPP1 pretreatment (TrkB F616A) | TrkB phosphorylation in F616A mice after 1NMPP1 pretreatment (TrkB F616A) | TrkB F616A activation (phosphorylation) in knockin mice (TrkB F616A)
1 | CN(C)c1ccc(-c2cc(=O)c3ccc(O)c(O)c3o2)cc1 [4′-DMA-7,8-DHF, 4′-dimethylamino-7,8-dihydroxyflavone] | 10 min | markedly diminished | abolished | notably blocked by 1NMPP1 pretreatment | strongly activated
2 | O=c1cc(-c2ccccc2)oc2c(O)c(O)ccc12 [7,8-DHF, 7,8-dihydroxyflavone, reference compound] | – | markedly diminished | abolished | notably blocked by 1NMPP1 pretreatment | strongly activated
